Target: T1, human neutrophil elastase (HNE) (Homo sapiens, UniProt P08246)
T1 construct: purchased Sigma E8140
T1 sequence (P08246 30-247 limits assumed): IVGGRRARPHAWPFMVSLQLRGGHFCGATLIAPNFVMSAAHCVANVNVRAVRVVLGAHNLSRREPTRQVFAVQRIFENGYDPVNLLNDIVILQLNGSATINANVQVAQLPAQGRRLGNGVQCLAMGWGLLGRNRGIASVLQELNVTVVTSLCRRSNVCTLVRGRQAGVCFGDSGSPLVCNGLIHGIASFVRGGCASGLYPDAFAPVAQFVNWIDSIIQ
Assay: HNE enzyme assay
Assay type: biochemical
Settings: human leukocyte elastase 0.00072 U/mL; substrate MeOSuc-Ala-Ala-Pro-Val-AMC 100 μM; 25° C., 30 minutes; at least two separate experiments; read-out: HNE inhibition
Experimental: Compounds of this invention were tested for potency in a human neutrophil elastase (HNE) enzyme activity assay. HNE Enzyme Assay Assays were performed in 96-well plates in a total assay volume of 100 μL. The final concentration of elastase enzyme (human leukocyte elastase, Sigma E8140) was 0.00072 U/mL. The peptide substrate (MeOSuc-[…], Calbiochem #324740) was used at a final concentration of 100 μM. The final concentration of DMSO was 1% in the assay buffer (0.05M Tris.HCl, 0.1M NaCl, 0.1M CaCl2, 0.0005% brij-35, pH 7.5). The enzymatic reaction was started by addition of the enzyme and incubated at 25° C. for 30 minutes. After incubation, the reaction was stopped by addition of soybean trypsin inhibitor (Sigma T9003) at a final concentration of 50 μg/well. Fluorescence was measured using a Molecular Devices fluorescence plate reader using 380 nm excitation and 460 nm emission wavelengths. A dose response to each compound was performed and the effect of compound in each experiment was expressed as a percentage inhibition of the control enzyme fluorescence. Dose response curves were plotted and compound potency (IC50) was determined. Compounds were tested in at least two separate experiments.

Structure (SMILES) | IC50 [nM]
Cc1c(-c2n(-c3ccc(C#N)cc3)cc[n+]2C)n(C(=O)NC2CCCC2)c(=O)n1-c1cccc(C(F)(F)F)c1 [Example 1, 1-(4-Cyanophenyl)-2-{3-(cyclopentylcarbamoyl)-5-methyl-2-oxo-1-[3-(trifluoromethyl)phenyl]-2,3-dihydro-1H-imidazol-4-yl}-3-methyl-1H-imidazol-3-ium benzene sulfonate] | < 1
Cc1c(-c2n(-c3ccc(C#N)cc3)cc[n+]2Cc2ccccc2)n(C(=O)NC2CCCC2)c(=O)n1-c1cccc(C(F)(F)F)c1 [Example 2, 1-(4-Cyanophenyl)-2-{3-(cyclopentylcarbamoyl)-5-methyl-2-oxo-1-[3-(trifluoromethyl)phenyl]-2,3-dihydro-1H-imidazol-4-yl}-3-benzyl-1H-imidazol-3-ium bromide] | < 1
Cc1c(-c2n(-c3ccc(C#N)cc3)cc[n+]2C)n(C(=O)NC2CCC2)c(=O)n1-c1cccc(C(F)(F)F)c1 [Example 3, 1-(4-Cyanophenyl)-2-{3-(cyclobutylcarbamoyl)-5-methyl-2-oxo-1-[3-(trifluoromethyl)phenyl]-2,3-dihydro-1H-imidazol-4-yl}-3-methyl-1H-imidazol-3-ium benzene sulfonate] | < 1
Cc1c(-c2n(-c3ccc(C#N)cc3)cc[n+]2C)n(C(=O)NC2CCN(C(=O)C(F)(F)F)CC2)c(=O)n1-c1cccc(C(F)(F)F)c1 [Example 4, 1-(4-Cyanophenyl)-2-{3-[1-(2,2,2-trifluoro-acetyl)-piperidin-4-ylcarbamoyl]-5-methyl-2-oxo-1-[3-(trifluoromethyl)phenyl]-2,3-dihydro-1H-imidazol-4-yl}-3-methyl-1H-imidazol-3-ium benzene sulfonate] | < 1
Cc1c(-c2n(-c3ccc(C#N)cc3)cc[n+]2C)n(C(=O)NCc2ccc(S(C)(=O)=O)cc2)c(=O)n1-c1cccc(C(F)(F)F)c1 [Example 5, 1-(4-Cyanophenyl)-2-{3-(4-methanesulfonyl-benzylcarbamoyl)-5-methyl-2-oxo-1-[3-(trifluoromethyl)phenyl]-2,3-dihydro-1H-imidazol-4-yl}-3-methyl-1H-imidazol-3-ium benzene sulfonate] | 1 to 10
Cc1c(-c2n(-c3ccc(C#N)cc3)nc[n+]2C)n(C(=O)NC2CCCC2)c(=O)n1-c1cccc(C(F)(F)F)c1 [Example 6, 1-(4-Cyano-phenyl)-5-[3-cyclopentylcarbamoyl-5-methyl-2-oxo-1-(3-trifluoromethyl-phenyl)-2,3-dihydro-1H-imidazol-4-yl]-4-methyl-1H-[1,2,4]triazol-4-ium benzene sulfonate] | < 1
Cn1c(-c2n(-c3ccc(C#N)cc3)cc[n+]2C)c(C(=O)NC2CCCC2)c(=O)n1-c1cccc(C(F)(F)F)c1 [Example 7, 3-(4-Cyano-phenyl)-2-[4-cyclopentylcarbamoyl-2-methyl-5-oxo-1-(3-trifluoromethyl-phenyl)-2,5-dihydro-1H-pyrazol-3-yl]-1-methyl-3H-imidazol-1-ium benzenesulfonate] | < 1
Cn1c(-c2n(-c3ccc(C#N)cc3)nc[n+]2C)c(C(=O)NC2CCCC2)c(=O)n1-c1cccc(C(F)(F)F)c1 [Example 8, 1-(4-cyano-phenyl)-5-[4-cyclopentylcarbamoyl-2-methyl-5-oxo-1-(3-trifluoromethyl-phenyl)-2,5-dihydro-1H-pyrazol-3-yl]-4-methyl-1H-[1,2,4]triazol-4-ium benzenesulfonate] | < 1
Cc1c(-c2ccnn2-c2ccc(C#N)cc2CC[N+](C)(C)C)n(C(=O)NC2CCCC2)c(=O)n1-c1cccc(C(F)(F)F)c1 [Example 9, [2-(5-Cyano-2-{5-[3-cyclopentylcarbamoyl-5-methyl-2-oxo-1-(3-trifluoromethyl-phenyl)-2,3-dihydro-1H-imidazol-4-yl]-pyrazol-1-yl}-phenyl)-ethyl]-trimethyl-ammonium benzene sulfonate] | < 1
Cc1c(-c2ccnn2-c2ccc(C#N)cc2CC[N+](C)(C)Cc2ccccc2)n(C(=O)NC2CCCC2)c(=O)n1-c1cccc(C(F)(F)F)c1 [Example 10, Benzyl-[2-(5-cyano-2-{5-[3-cyclopentylcarbamoyl-5-methyl-2-oxo-1-(3-trifluoromethyl-phenyl)-2,3-dihydro-1H-imidazol-4-yl]-pyrazol-1-yl}-phenyl)-ethyl]-dimethyl-ammonium bromide] | < 1
Cc1c(-c2ccnn2-c2ccc(C#N)cc2CC[N+](C)(C)C)n(C(=O)NC2CCCCC2)c(=O)n1-c1cccc(C(F)(F)F)c1 [Example 11, [2-(5-Cyano-2-{5-[3-cyclohexylcarbamoyl-5-methyl-2-oxo-1-(3-trifluoromethyl-phenyl)-2,3-dihydro-1H-imidazol-4-yl]-pyrazol-1-yl}-phenyl)-ethyl]-trimethyl-ammonium benzene sulphonate] | < 1
Cc1c(-c2ccnn2-c2ccc(C#N)cc2CC[N+](C)(C)C)n(C(=O)NC2CC2)c(=O)n1-c1cccc(C(F)(F)F)c1 [Example 12, [2-(5-Cyano-2-{5-[3-cyclopropylcarbamoyl-5-methyl-2-oxo-1-(3-trifluoromethyl-phenyl)-2,3-dihydro-1H-imidazol-4-yl]-pyrazol-1-yl}-phenyl)-ethyl]-trimethyl-ammonium benzene sulphonate] | < 1
CCNC(=O)n1c(-c2ccnn2-c2ccc(C#N)cc2CC[N+](C)(C)C)c(C)n(-c2cccc(C(F)(F)F)c2)c1=O [Example 13, [2-(5-Cyano-2-{5-[3-ethylcarbamoyl-5-methyl-2-oxo-1-(3-trifluoromethyl-phenyl)-2,3-dihydro-1H-imidazol-4-yl]-pyrazol-1-yl}-phenyl)-ethyl]-trimethyl-ammonium benzene sulphonate] | < 1
Cc1c(-c2ccnn2-c2ccc(C#N)cc2CC[N+](C)(C)C)n(C(=O)NC(C)C)c(=O)n1-c1cccc(C(F)(F)F)c1 [Example 14, [2-(5-Cyano-2-{5-[3-isopropylcarbamoyl-5-methyl-2-oxo-1-(3-trifluoromethyl-phenyl)-2,3-dihydro-1H-imidazol-4-yl]-pyrazol-1-yl}-phenyl)-ethyl]-trimethyl-ammonium benzene sulphonate] | < 1
Cn1c(-c2ccnn2-c2ccc(C#N)cc2CC[N+](C)(C)C)c(C(=O)NC2CCCC2)c(=O)n1-c1cccc(C(F)(F)F)c1 [Example 15, (2-{5-Cyano-2-[4′-cyclopentylcarbamoyl-2′-methyl-5′-oxo-1′-(3-trifluoromethyl-phenyl)-2′,5′-dihydro-1′H-[3,3′]bipyrazolyl-2-yl]-phenyl}-ethyl)-trimethyl-ammonium benzene sulfonate] | < 1
Cn1c(-c2ccnn2-c2ccc(C#N)cc2CC[N+](C)(C)Cc2ccccc2)c(C(=O)NC2CCCC2)c(=O)n1-c1cccc(C(F)(F)F)c1 [Example 16, Benzyl-(2-{5-cyano-2-[4′-cyclopentylcarbamoyl-2′-methyl-5′-oxo-1′-(3-trifluoromethyl-phenyl)-2′,5′-dihydro-1′H-[3,3′]bipyrazolyl-2-yl]-phenyl}-ethyl)-dimethyl-ammonium bromide] | < 1
Cn1c(-c2ccnn2-c2ccc(C#N)cc2CC[N+](C)(C)C)c(C(=O)NC2CCCCC2)c(=O)n1-c1cccc(C(F)(F)F)c1 [Example 17, (2-{5-Cyano-2-[4′-cyclohexylcarbamoyl-2′-methyl-5′-oxo-1′-(3-trifluoromethyl-phenyl)-2′,5′-dihydro-1′H-[3,3′]bipyrazolyl-2-yl]-phenyl}-ethyl)-trimethyl-ammonium benzene sulfonate] | < 1

— patent US9862706B2, “Compounds” (CHIESI FARMACEUTICI S.P.A., priority 2016, dated 2018)
